pIC50: −log10 of the molar value.
system: not listed separately; experiment: Cytotoxicity against human fibroblast cells assessed as viable cells at 10 uM by trypan blue staining based assay; format: cell-based; conditions: read-out: Activity

Structure (SMILES) | viability at 10 µM [%]
COc1cc2c(cc1OC)C1C(CO)c3ccc4c(c3CN1CC2)OCO4 (stereo not given) | 100
COc1cc(C2CNCc3cc(OC)c(O)cc32)ccc1O (stereo not given) | 100
NC(c1ccc2c(c1)OCO2)C(O)c1ccc2c(c1)OCO2 (stereo not given) | 100
COc1cc2c(cc1OC)C(c1ccc(O)c(O)c1)CNC2 (stereo not given) | 100
COc1ccc(Nc2ccnc3cc(Cl)ccc23)cc1CNCC(C)C | 12
Cc1ccc(N2CCN(CCCOC(=O)Nc3cccc4ccccc34)CC2)cc1 | 89
Fc1ccc(N/C2=N/CC/N=C(/Nc3ccc(F)cc3)SS2)cc1 | 100
COc1cc(-n2c(CCc3nc(-c4ccc(Cl)cc4)no3)n[nH]c2=S)c(OC)cc1Cl | 74
Cc1ccc2c(c1)C(NC(Cc1ccccc1)C(=O)O)C(Cl)C(=O)O2 (stereo not given) | 94
COc1cc(C2CNCc3cc(O)c(OC)cc32)ccc1O (stereo not given) | 100
O=C1OCCN1N1C(=O)CC2(CCN(Cc3ccccc3)CC2)C1=O | 100
C[N+]1(CCOC(=O)C(c2ccccc2)C2C=CCC2)CCCC12CCCCC2 (stereo not given) | 100
CN(C)C1C(c2ccccc2)S(=O)(=O)C1C1CS(=O)(=O)C1c1ccccc1 (stereo not given) | 39
CC1CN(CC2COc3ccccc3O2)C(C)CN1CC1COc2ccccc2O1 (stereo not given) | 100
CN1CCc2ccccc2C1Cc1cc(OCc2ccccc2)ccc1N (stereo not given) | 82
CC1CN(CCOC(=O)C(c2ccccc2)C2C=CCCC2)CC1C (stereo not given) | 100
C=CCN1CC[C@]23c4c5ccc(O)c4O[C@H]2C(=O)CC[C@@]3(O)[C@H]1C5 [NALOXONE] | 100

system: not listed separately; experiment: Cytotoxicity against human fibroblast cells assessed as viable cells at 50 uM by trypan blue staining based assay; format: cell-based; conditions: read-out: Activity

Structure (SMILES) | viability at 50 µM [%]
COc1cc2c(cc1OC)C1C(CO)c3ccc4c(c3CN1CC2)OCO4 (stereo not given) | 75
COc1cc(C2CNCc3cc(OC)c(O)cc32)ccc1O (stereo not given) | 90
NC(c1ccc2c(c1)OCO2)C(O)c1ccc2c(c1)OCO2 (stereo not given) | 82
COc1cc2c(cc1OC)C(c1ccc(O)c(O)c1)CNC2 (stereo not given) | 97
COc1ccc(Nc2ccnc3cc(Cl)ccc23)cc1CNCC(C)C | 17
Cc1ccc(N2CCN(CCCOC(=O)Nc3cccc4ccccc34)CC2)cc1 | 89
Fc1ccc(N/C2=N/CC/N=C(/Nc3ccc(F)cc3)SS2)cc1 | 57
COc1cc(-n2c(CCc3nc(-c4ccc(Cl)cc4)no3)n[nH]c2=S)c(OC)cc1Cl | 61
Cc1ccc2c(c1)C(NC(Cc1ccccc1)C(=O)O)C(Cl)C(=O)O2 (stereo not given) | 100
COc1cc(C2CNCc3cc(O)c(OC)cc32)ccc1O (stereo not given) | 100
O=C1OCCN1N1C(=O)CC2(CCN(Cc3ccccc3)CC2)C1=O | 100
C[N+]1(CCOC(=O)C(c2ccccc2)C2C=CCC2)CCCC12CCCCC2 (stereo not given) | 81
CN(C)C1C(c2ccccc2)S(=O)(=O)C1C1CS(=O)(=O)C1c1ccccc1 (stereo not given) | 19
CC1CN(CC2COc3ccccc3O2)C(C)CN1CC1COc2ccccc2O1 (stereo not given) | 77
CN1CCc2ccccc2C1Cc1cc(OCc2ccccc2)ccc1N (stereo not given) | 16
CC1CN(CCOC(=O)C(c2ccccc2)C2C=CCCC2)CC1C (stereo not given) | 100
C=CCN1CC[C@]23c4c5ccc(O)c4O[C@H]2C(=O)CC[C@@]3(O)[C@H]1C5 [NALOXONE] | 100

system: not listed separately; experiment: Inhibition of P-gp in human MCF7/D70 cells assessed as decrease in doxorubicin IC50 at 50 uM after 72 hrs by MTT assay (Rvb doxorubicin alone IC50 = 0.906 +/- 0.02 uM); format: cell-based; conditions: MCF7/D70, 72 h

Structure (SMILES) | pIC50
COc1cc2c(cc1OC)C1C(CO)c3ccc4c(c3CN1CC2)OCO4 (stereo not given) | 6.24
COc1cc(C2CNCc3cc(OC)c(O)cc32)ccc1O (stereo not given) | 6.21
NC(c1ccc2c(c1)OCO2)C(O)c1ccc2c(c1)OCO2 (stereo not given) | 5.60
COc1cc2c(cc1OC)C(c1ccc(O)c(O)c1)CNC2 (stereo not given) | 6.10
Cc1ccc(N2CCN(CCCOC(=O)Nc3cccc4ccccc34)CC2)cc1 | 6.08
Fc1ccc(N/C2=N/CC/N=C(/Nc3ccc(F)cc3)SS2)cc1 | 6.72
COc1cc(-n2c(CCc3nc(-c4ccc(Cl)cc4)no3)n[nH]c2=S)c(OC)cc1Cl | 6.52
Cc1ccc2c(c1)C(NC(Cc1ccccc1)C(=O)O)C(Cl)C(=O)O2 (stereo not given) | 6.07
COc1cc(C2CNCc3cc(O)c(OC)cc32)ccc1O (stereo not given) | 6.08
O=C1OCCN1N1C(=O)CC2(CCN(Cc3ccccc3)CC2)C1=O | 6.29
C[N+]1(CCOC(=O)C(c2ccccc2)C2C=CCC2)CCCC12CCCCC2 (stereo not given) | 5.81
CC1CN(CC2COc3ccccc3O2)C(C)CN1CC1COc2ccccc2O1 (stereo not given) | 6.24
CC1CN(CCOC(=O)C(c2ccccc2)C2C=CCCC2)CC1C (stereo not given) | 5.67
C=CCN1CC[C@]23c4c5ccc(O)c4O[C@H]2C(=O)CC[C@@]3(O)[C@H]1C5 [NALOXONE] | 6.44

system: MCF7; experiment: Cytotoxicity against human MCF7 cells assessed as viable cells at 50 uM by trypan blue staining based assay; format: functional; conditions: read-out: Activity

Structure (SMILES) | viability at 50 µM [%]
COc1cc2c(cc1OC)C1C(CO)c3ccc4c(c3CN1CC2)OCO4 (stereo not given) | 72
COc1cc(C2CNCc3cc(OC)c(O)cc32)ccc1O (stereo not given) | 73
NC(c1ccc2c(c1)OCO2)C(O)c1ccc2c(c1)OCO2 (stereo not given) | 72
COc1cc2c(cc1OC)C(c1ccc(O)c(O)c1)CNC2 (stereo not given) | 97
COc1ccc(Nc2ccnc3cc(Cl)ccc23)cc1CNCC(C)C | 6
Cc1ccc(N2CCN(CCCOC(=O)Nc3cccc4ccccc34)CC2)cc1 | 70
Fc1ccc(N/C2=N/CC/N=C(/Nc3ccc(F)cc3)SS2)cc1 | 58
COc1cc(-n2c(CCc3nc(-c4ccc(Cl)cc4)no3)n[nH]c2=S)c(OC)cc1Cl | 71
Cc1ccc2c(c1)C(NC(Cc1ccccc1)C(=O)O)C(Cl)C(=O)O2 (stereo not given) | 74
COc1cc(C2CNCc3cc(O)c(OC)cc32)ccc1O (stereo not given) | 80
O=C1OCCN1N1C(=O)CC2(CCN(Cc3ccccc3)CC2)C1=O | 89
C[N+]1(CCOC(=O)C(c2ccccc2)C2C=CCC2)CCCC12CCCCC2 (stereo not given) | 75
CN(C)C1C(c2ccccc2)S(=O)(=O)C1C1CS(=O)(=O)C1c1ccccc1 (stereo not given) | 5
CC1CN(CC2COc3ccccc3O2)C(C)CN1CC1COc2ccccc2O1 (stereo not given) | 53
CN1CCc2ccccc2C1Cc1cc(OCc2ccccc2)ccc1N (stereo not given) | 6
CC1CN(CCOC(=O)C(c2ccccc2)C2C=CCCC2)CC1C (stereo not given) | 74
C=CCN1CC[C@]23c4c5ccc(O)c4O[C@H]2C(=O)CC[C@@]3(O)[C@H]1C5 [NALOXONE] | 67

system: not listed separately; experiment: Inhibition of P-gp in human MCF7/D70 cells assessed as decrease in doxorubicin IC50 at 1 uM after 72 hrs by MTT assay (Rvb doxorubicin alone IC50 = 0.906 +/- 0.02 uM); format: cell-based; conditions: MCF7/D70, 72 h

Structure (SMILES) | pIC50
Fc1ccc(N/C2=N/CC/N=C(/Nc3ccc(F)cc3)SS2)cc1 | 6.49
COc1cc(-n2c(CCc3nc(-c4ccc(Cl)cc4)no3)n[nH]c2=S)c(OC)cc1Cl | 6.03

system: MCF7; experiment: Cytotoxicity against human MCF7 cells assessed as viable cells at 10 uM by trypan blue staining based assay; format: functional; conditions: read-out: Activity

Structure (SMILES) | viability at 10 µM [%]
COc1cc2c(cc1OC)C1C(CO)c3ccc4c(c3CN1CC2)OCO4 (stereo not given) | 90
COc1cc(C2CNCc3cc(OC)c(O)cc32)ccc1O (stereo not given) | 76
NC(c1ccc2c(c1)OCO2)C(O)c1ccc2c(c1)OCO2 (stereo not given) | 74
COc1cc2c(cc1OC)C(c1ccc(O)c(O)c1)CNC2 (stereo not given) | 93
COc1ccc(Nc2ccnc3cc(Cl)ccc23)cc1CNCC(C)C | 26
Cc1ccc(N2CCN(CCCOC(=O)Nc3cccc4ccccc34)CC2)cc1 | 93
Fc1ccc(N/C2=N/CC/N=C(/Nc3ccc(F)cc3)SS2)cc1 | 92
COc1cc(-n2c(CCc3nc(-c4ccc(Cl)cc4)no3)n[nH]c2=S)c(OC)cc1Cl | 86
Cc1ccc2c(c1)C(NC(Cc1ccccc1)C(=O)O)C(Cl)C(=O)O2 (stereo not given) | 75
COc1cc(C2CNCc3cc(O)c(OC)cc32)ccc1O (stereo not given) | 75
O=C1OCCN1N1C(=O)CC2(CCN(Cc3ccccc3)CC2)C1=O | 95
C[N+]1(CCOC(=O)C(c2ccccc2)C2C=CCC2)CCCC12CCCCC2 (stereo not given) | 89
CN(C)C1C(c2ccccc2)S(=O)(=O)C1C1CS(=O)(=O)C1c1ccccc1 (stereo not given) | 68
CC1CN(CC2COc3ccccc3O2)C(C)CN1CC1COc2ccccc2O1 (stereo not given) | 80
CN1CCc2ccccc2C1Cc1cc(OCc2ccccc2)ccc1N (stereo not given) | 74
CC1CN(CCOC(=O)C(c2ccccc2)C2C=CCCC2)CC1C (stereo not given) | 89
C=CCN1CC[C@]23c4c5ccc(O)c4O[C@H]2C(=O)CC[C@@]3(O)[C@H]1C5 [NALOXONE] | 74

system: not listed separately; experiment: Inhibition of P-gp in human MCF7/D70 cells assessed as decrease in doxorubicin IC50 at 10 uM after 72 hrs by MTT assay (Rvb doxorubicin alone IC50 = 0.906 +/- 0.02 uM); format: cell-based; conditions: MCF7/D70, 72 h

Structure (SMILES) | pIC50
COc1cc(C2CNCc3cc(OC)c(O)cc32)ccc1O (stereo not given) | 6.08
Fc1ccc(N/C2=N/CC/N=C(/Nc3ccc(F)cc3)SS2)cc1 | 6.49
COc1cc(-n2c(CCc3nc(-c4ccc(Cl)cc4)no3)n[nH]c2=S)c(OC)cc1Cl | 6.51
CC1CN(CC2COc3ccccc3O2)C(C)CN1CC1COc2ccccc2O1 (stereo not given) | 5.84
C=CCN1CC[C@]23c4c5ccc(O)c4O[C@H]2C(=O)CC[C@@]3(O)[C@H]1C5 [NALOXONE] | 6.07
COc1ccc(CCN(C)CCCC(C#N)(c2ccc(OC)c(OC)c2)C(C)C)cc1OC (stereo not given) [VERAPAMIL] | 6.70
